By Ki is commonly meant a measure of affinity in units of concentration, obtained from inhibition or displacement.

From US5686486A, “4-hydroxy-benzopyran-2-ones and 4-hydroxy-cycloalkyl[b]pyran-2-ones useful to treat retroviral infections” (priority 1995, dated 1997) come the findings set out here.

In experiment [1] the target is T1, HIV-1 protease (Human immunodeficiency virus type 1 group M subtype B, UniProt P04585). Description: biochemical. The settings on record: read-out: HIV-1 FITC KI. The essentials:
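Enzyme (40 nM stock) and substrate (200 μM stock) incubated with inhibitor, 24–48 two-fold serial concentrations, for 90 min at room temperature, then quenched with avidin beads. Nonlinear least-squares analysis gives Ki; a known-Ki inhibitor validates each run.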

Experiment [2] addresses T1, HIV-1 protease. Nature of the experiment: biochemical. The following applies: for inhibition at 0.37 µM: read-out: HIV-1 Protease % Inhib, dose 0.370 uM; for inhibition at 1.1 µM: read-out: HIV-1 Protease % Inhib, dose 1.100 uM; for inhibition at 3.3 µM: read-out: HIV-1 Protease % Inhib, dose 3.300 uM; for inhibition at 10 µM: read-out: HIV-1 Protease % Inhib, dose 10.000 uM; for inhibition at 30 µM: read-out: HIV-1 Protease % Inhib, dose 30.000 uM; for inhibition at 0.123 µM: read-out: HIV-1 Protease % Inhib, dose 0.123 uM. In outline:
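Percent inhibition derived from fluorescent cleavage product separated by filtration after streptavidin-bead capture of intact biotin/FITC substrate. Reaction: enzyme (10 μl, 0.1 μM stock) with substrate (20 μl, 0.2 μM stock) and compound, 1 h at room temperature in dark, pH 5.5 acetate buffer with 1.0 M NaCl and 0.05% NP-40.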

Structures can show the parent of a compound that is named as a salt.

Consider `O=c1oc2c(c(O)c1C(c1cccs1)C1CC1)CCCCCC2` (stereo not drawn) [Example 379, 3-(α-Cyclopropylthien-2-ylmethyl)-4-hydroxy-5,6,7,8,9,10-hexahydrocycloocta[b]pyran-2-one], for which, on HIV-1 protease [1], the Ki is 18.3 nM. For the same compound, at HIV-1 protease [2], the inhibition at 0.37 µM is 48.6%, the inhibition at 1.1 µM stood at 84.5%, the inhibition at 3.3 µM stood at 96.2% and the inhibition at 10 µM is 107%. Besides, the inhibition at 30 µM at HIV-1 protease [2] came out at 113%.

In the case of `CCC(c1cccs1)c1c(O)c2c(oc1=O)CCCCCC2` (stereo not drawn) [Example 380, 3-(α-Ethylthien-2-ylmethyl)4-hydroxy-5,6,7,8,9,10-hexahydrocycloocta[b]pyran-2-one], the Ki on HIV-1 protease [1] came out at 87.9 nM. At HIV-1 protease [2], the inhibition at 0.37 µM came to 21.5%, the inhibition at 1.1 µM came out at 57.2%, the inhibition at 3.3 µM came out at 82.5% and the inhibition at 10 µM came to 103%. Also, the inhibition at 30 µM on HIV-1 protease [2] was found to be 108%.

For `CCC(c1ccc(C)s1)c1c(O)c2c(oc1=O)CCCCCC2` (centres unmarked) [Example 381], the Ki at HIV-1 protease [1] is 39.1 nM. Moreover, at HIV-1 protease [2], the inhibition at 0.37 µM worked out at 24.1%, the inhibition at 1.1 µM amounted to 62.3%, the inhibition at 3.3 µM amounted to 80.4% and the inhibition at 10 µM is 99.8%. Moreover, the inhibition at 30 µM on HIV-1 protease [2] is 96.7%.

In the case of `O=c1oc2c(c(O)c1C(c1ccc(CO)s1)C1CC1)CCCCCC2` (centres unmarked) [Example 384], on HIV-1 protease [1], the Ki stood at 24.1 nM. Further, at HIV-1 protease [2], the inhibition at 0.123 µM stood at 12.2%, the inhibition at 0.37 µM turned out to be 47.4%, the inhibition at 1.1 µM stood at 79.2% and the inhibition at 3.3 µM is 92.9%. In addition, on HIV-1 protease [2], the inhibition at 10 µM worked out at 103% and the inhibition at 30 µM stood at 102%.

On to `O=c1oc2c(c(O)c1C(c1ccc(CCO)s1)C1CC1)CCCCCC2` (centres unmarked) [Example 385], for which the Ki on HIV-1 protease [1] turned out to be 12.4 nM. On HIV-1 protease [2], the inhibition at 0.37 µM was 48.5%, the inhibition at 1.1 µM came out at 89.5%, the inhibition at 3.3 µM is 104% and the inhibition at 10 µM worked out at 107%. Besides, the inhibition at 30 µM at HIV-1 protease [2] was 107%.

Consider `O=C(NCc1ccc(C(c2c(O)c3c(oc2=O)CCCCCC3)C2CC2)o1)OCc1ccccc1` (stereo not drawn) [Example 388, 3-(α-Cyclopropyl (5-(N-carbobenzoxy)aminomethyl)furfur-2-yl)-4-hydroxy-5,6,7,8,9,10-hexahydrocycloocta[b]pyran-2-one], for which the Ki at HIV-1 protease [1] is 21.7 nM. At HIV-1 protease [2], the inhibition at 0.37 µM stood at 42.8%, the inhibition at 1.1 µM was determined as 76%, the inhibition at 3.3 µM came to 96.5% and the inhibition at 10 µM was found to be 98.2%. In addition, the inhibition at 30 µM at HIV-1 protease [2] turned out to be 93.7%.

Regarding `O=C(NCc1ccc(C(c2c(O)c3c(oc2=O)CCCCCC3)C2CC2)s1)OCc1ccccc1` (stereo not drawn) [Example 389, 3-(α-Cyclopropyl (5-(N-carbobenzoxy)aminomethyl)thien-2-ylmethyl)-4-hydroxy-5,6,7,8,9,10-hexahydrocycloocta[b]pyran-2-one], the Ki on HIV-1 protease [1] worked out at 46.2 nM. In addition, at HIV-1 protease [2], the inhibition at 0.37 µM was 21.1%, the inhibition at 1.1 µM was 58%, the inhibition at 3.3 µM worked out at 78.7% and the inhibition at 10 µM amounted to 96.4%. The inhibition at 30 µM at HIV-1 protease [2] amounted to 98.7%.

As to `Cc1sc(C(c2c(O)c3c(oc2=O)CCCCCC3)C2CC2)cc1CO` (centres unmarked) [Example 394], on HIV-1 protease [1], the Ki was determined as 6.04 nM. On HIV-1 protease [2], the inhibition at 0.123 µM worked out at 72.7%, the inhibition at 0.37 µM came out at 102%, the inhibition at 1.1 µM turned out to be 109% and the inhibition at 3.3 µM is 115%. For the same compound, at HIV-1 protease [2], the inhibition at 10 µM was 120% and the inhibition at 30 µM was found to be 123%.

Turning to `O=c1oc2c(c(O)c1C(c1cccc(NS(=O)(=O)Nc3ccccc3)c1)C1CC1)CCCCCC2` (centres unmarked) [Example 397], the Ki on HIV-1 protease [1] came to 7.3 nM. In addition, on HIV-1 protease [2], the inhibition at 0.123 µM came out at 35.7%, the inhibition at 0.37 µM turned out to be 92.9%, the inhibition at 1.1 µM amounted to 105% and the inhibition at 3.3 µM amounted to 109%. On HIV-1 protease [2], the inhibition at 10 µM turned out to be 116% and the inhibition at 30 µM is 113%.

On to `CN(C)S(=O)(=O)Nc1cccc(C(c2c(O)c3c(oc2=O)CCCCCC3)C2CC2)c1` (centres unmarked) [Example 398, N'-[3-[cyclopropyl(5,6,7,8,9,10-hexahydro4-hydroxy-2-oxo-2H-cycloocta[b]pyran-3-yl)methyl]phenyl]-N,N-dimethyl-sulfamide], for which the Ki at HIV-1 protease [1] worked out at 41.5 nM. Also, at HIV-1 protease [2], the inhibition at 0.123 µM came out at 10.5%, the inhibition at 0.37 µM came out at 40.9%, the inhibition at 1.1 µM is 74.2% and the inhibition at 3.3 µM was 91.5%. Moreover, on HIV-1 protease [2], the inhibition at 10 µM came out at 105% and the inhibition at 30 µM was 105%.

Regarding `CN1CCN(S(=O)(=O)Nc2cccc(C(c3c(O)c4c(oc3=O)CCCCCC4)C3CC3)c2)CC1` (centres unmarked) [Example 399, N-[3-[Cyclopropyl(5,6,7,8,9,10-hexahydro-4-hydroxy-2-oxo-2H-cycloocta[b]pyran-3-yl)methyl]phenyl]4-methyl-1-piperazinesulfonamide], at HIV-1 protease [1], the Ki was 186 nM. For the same compound, at HIV-1 protease [2], the inhibition at 0.37 µM came out at 21.6% and the inhibition at 1.1 µM is 54.1%.

For `O=c1oc2c(c(O)c1C(c1cccc(S(=O)(=O)Nc3ccccc3)c1)C1CC1)CCCCCC2` (centres unmarked) [Example 400, N-Phenyl-3-[cyclopropyl(5,6,7,8,9, 10-hexahydro-4-hydroxy-2-oxo-2H-cycloocta[b]pyran-3-yl)methyl]-benzenesulfonamide], the Ki on HIV-1 protease [1] stood at 35.8 nM. At HIV-1 protease [2], the inhibition at 0.123 µM was determined as 17.4%, the inhibition at 0.37 µM stood at 54.8%, the inhibition at 1.1 µM is 78.7% and the inhibition at 3.3 µM worked out at 94.7%. On HIV-1 protease [2], the inhibition at 10 µM was 114% and the inhibition at 30 µM is 109%.

With `N#Cc1ccc(S(=O)(=O)Nc2cccc(C(c3c(O)c4c(oc3=O)CCCCCC4)C3CC3)c2)cc1` (centres unmarked) [Example 402, Sodium Salt of 4-Cyano-N-[3-[cyclopropyl(5,6,7,8,9,10-hexahydro4-hydroxy-2-oxo-2H-cycloocta[b]pyran-3-yl)methyl]phenyl]-benzenesulfonamide], on HIV-1 protease [1], the Ki worked out at 0.62 nM. Further, the “HIV-1 Protease % Inhib” value is 103.69% on HIV-1 protease [2] (dose 0.123 uM); 106.4% at HIV-1 protease [2] (dose 0.370 uM); 110.07% at HIV-1 protease [2] (dose 1.100 uM); 100.22% at HIV-1 protease [2] (dose 3.300 uM); 98.03% at HIV-1 protease [2] (dose 10.000 uM); 98.47% on HIV-1 protease [2] (dose 30.000 uM).

Regarding `O=c1oc2c(c(O)c1C(c1cccc(NS(=O)(=O)c3ccc(CBr)cc3)c1)C1CC1)CCCCCC2` (centres unmarked) [Example 403, 4-(Bromomethyl)-N-[3-[cyclopropyl(5,6,7,8,9,10-hexahydro-4-hydroxy-2-oxo-2H-cycloocta[b]pyran-3-yl)methyl]phenyl]-benzenesulfonamide], the Ki at HIV-1 protease [1] amounted to 5 nM. Further, on HIV-1 protease [2], the inhibition at 0.123 µM worked out at 41.6%, the inhibition at 0.37 µM was 77.5%, the inhibition at 1.1 µM was 92.9% and the inhibition at 3.3 µM was 94.8%. For the same compound, on HIV-1 protease [2], the inhibition at 10 µM was determined as 95.6% and the inhibition at 30 µM worked out at 97%.

As to `O=c1oc2c(c(O)c1[C@H](c1cccc(NS(=O)(=O)c3ccc(S(=O)(=O)c4ccccc4)s3)c1)C1CC1)CCCCCC2` [Example 404], the Ki at HIV-1 protease [1] was 2.87 nM. For the same compound, at HIV-1 protease [2], the inhibition at 0.123 µM came to 58.3%, the inhibition at 0.37 µM stood at 85.3%, the inhibition at 1.1 µM was determined as 103% and the inhibition at 3.3 µM is 108%. Besides, at HIV-1 protease [2], the inhibition at 10 µM is 106% and the inhibition at 30 µM is 103%.

Consider `O=c1oc2c(c(O)c1C(c1cccc(NS(=O)(=O)c3cccc(O)c3)c1)C1CC1)CCCCCC2` (centres unmarked) [Example 405, N-[3-[Cyclopropyl(5,6,7,8,9,10-hexahydro-4-hydroxy-2-oxo-2H-cycloocta[b]pyran-3-yl)methyl]phenyl]-3-hydroxy-benzenesulfonamide], for which, on HIV-1 protease [1], the Ki turned out to be 3.13 nM. Besides, on HIV-1 protease [2], the inhibition at 0.123 µM turned out to be 46.5%, the inhibition at 0.37 µM stood at 88.6%, the inhibition at 1.1 µM is 101% and the inhibition at 3.3 µM is 106%. Further, on HIV-1 protease [2], the inhibition at 10 µM amounted to 101% and the inhibition at 30 µM stood at 77.2%.

`O=c1oc2c(c(O)c1C(c1cccc(NS(=O)(=O)c3ccc(O)cc3)c1)C1CC1)CCCCCC2` (centres unmarked) [Example 407, N-[3-[Cyclopropyl(5,6,7,8,9,10-hexahydro-4-hydroxy-2-oxo-2H-cycloocta[b]pyran-3-yl)methyl]phenyl]-4-hydroxy-benzenesulfonamide]: the Ki at HIV-1 protease [1] came out at 6.6 nM. Besides, on HIV-1 protease [2], the inhibition at 0.123 µM was found to be 26.8%, the inhibition at 0.37 µM came to 74.7%, the inhibition at 1.1 µM came to 91.2% and the inhibition at 3.3 µM worked out at 98.1%. Moreover, at HIV-1 protease [2], the inhibition at 10 µM turned out to be 107% and the inhibition at 30 µM was found to be 113%.

In the case of `O=C(COCc1ccccc1)Nc1cccc(S(=O)(=O)Nc2cccc(C(c3c(O)c4c(oc3=O)CCCCCC4)C3CC3)c2)c1` (centres unmarked) [Example 408, 3-(Benzyloxyacetylamino)-N-[3-[cyclopropyl(5,6,7,8,9,10-hexahydro-4-hydroxy-2-oxo-2H-cycloocta[b]pyran-3-yl)methyl]phenyl]-benzenesulfonamide], the Ki on HIV-1 protease [1] worked out at 14 nM. In addition, at HIV-1 protease [2], the inhibition at 0.123 µM is 38.4%, the inhibition at 0.37 µM was found to be 70.1%, the inhibition at 1.1 µM was determined as 88.9% and the inhibition at 3.3 µM was determined as 98.5%. Moreover, at HIV-1 protease [2], the inhibition at 10 µM stood at 91.7% and the inhibition at 30 µM turned out to be 107%.
